Data published in patent US20020164755A1, “Stable esterase, a process for the extraction thereof, and use thereof for cleaving acyclic monoterpenyl esters into their monoterpenols” (Council of Scientific and Industrial Research, priority 2000, published 2002).
Where a name gives a salt, the structure may show the parent alone.

Legend:
[1] = tested on: esterase enzyme from palmarosa inflorescence (60-80% ammonium sulphate precipitated fraction); assay: Hydrolysis of mixture of acyclic monoterpenyl esters by 60-80% ammonium sulphate precipitated protein fraction; assay type: biochemical, Cymbopogon martinii; conditions: 60-80% fraction, 1 mg protein; ester rich fraction from citronella java (geranyl acetate:geranyl formate:citronellyl acetate 60:18:21) as substrate
Protocol: (§1) The geranyl acetate cleaving esterase activity was determined by GLC monitoring of geraniol produced by the hydrolysis of geranyl acetate. The assay system consisted of 0.05M Tris-HCl buffer (pH 8.5), 5 mM MgCl2. 6H2O, 1 mM DTE, 2 mM geranyl acetate and enzyme extract (approximately 1 mg protein), in a total volume of 0.5 ml. The reaction mixture was incubated at 30° C. in a sealed capped tube for 3-4 hours. The geraniol produced and leftover geranyl acetate was then extracted with ether and subjected to GLC. The appearance of geraniol peak indicated the presence of geranyl acetate cleaving esterase activity (FIG. 1). A blank with the boiled enzyme was also run simultaneously.
(§2) The gas liquid chromatographic (GLC) analysis, for the determination of geraniol produced and leftover geranyl acetate, was performed using a Perkin Elmer (model 3920 B) apparatus equipped with FID (flame ionization detector) stainless steel column (2 m×3 mm i.d.) packed with 10% FFAP (free fatty acid phase) on chromosorb WAW (80-100 mesh). The operating conditions were: Column temperature isothermal at 165° C., injector and detector temperature 200° C. and 250° C. respectively. Nitrogen and hydrogen flow rate were a adjusted to 30 ml/min and 28 ml/min, respectively. The geraniol and geranyl acetate peaks were identified by coinjecting authentic standards and quantified using a Varian integrator (model 4400).
Monoterpenyl ester rich fraction from citronella java containing geranyl acetate, geranyl formate and citronellyl acetate in proportion (60:18:21) was used as substrate. […] Furthermore, crude esterase enzyme was also able to cleave these acyclic monoterpenyl esters but to a lesser extent.

[2] = tested on: esterase enzyme from palmarosa inflorescence; assay: Hydrolysis of geranyl acetate and other acyclic monoterpenyl esters by crude enzymic preparation from palmarosa inflorescence, GLC monitoring; assay type: biochemical, Cymbopogon martinii; conditions: for Hydrolysis by crude enzymic preparation (in words): crude enzymic preparation from palmarosa inflorescence; for % Geranyl acetate hydrolyzed: 10 μmol geranyl acetate, 1 mg protein, 30° C.
Protocol: The extraction medium for the esterase enzyme consisted of 0.1 M NaPi buffer (pH 6.5) containing 50 mM sodium metabisulphite, 10 mM β-mercaptoethanol, 10 mM ascrobic acid, 0.25 M sucrose and 1 mM EDTA-Na2. Tissue (palmarosa inflorescence) was homogenized in cold extraction medium (1 g tissue/3 ml) in the presence of 50% (w/w) insoluble PVPP (polyvinyl polypyrrolidone), which prevent enzymic browning of the homogenate. The slurry was squeezed through four layers of muslin cloth and centrifuged at 15,000×g for 60 min. Purified amberlite XAD-4 resin (50% of the tissue weight) was added to the supernatant and kept for 5 minutes at 4° C., to remove the endogenous terpenes of the tissue, which can produce a significant artefact in the determination of esterase enzyme activity. The slurry thus formed was filtered through muslin cloth and the clear supernatant obtained was used to determine the acyclic monoterpenyl esters cleaving esterase activity using geranyl acetate as a model substrate. This supernatant fraction was also used for ammonium sulphate fractionation of the esterase enzyme.
Preliminary enzyme assays were done to optimize the assay conditions, and linearity of the reaction rate with time as well as enzyme concentration. The terpenoid substrates were solubilized by its dispersion in the solution of Tween-20 (10 μg/μmol of the substrate). A gas liquid chromatographic (GLC) procedure has been developed to detect the acyclic monoterpenyl esters cleaving esterase activity. […] Saturating levels (10 μmol) of the substrate geranyl acetate and 0.5 to 1.0 mg of the enzyme protein were used in each assay.
as §1, §2
Time course experiment was performed to study the linearity of the hydrolysis of geranyl acetate during the incubation period using enzymic preparation from palmarosa inflorescence. A linear catalytic rate was found up to six hours of incubation at 30° C. Almost 75% of the geranyl acetate was hydrolyzed after 24 hours of incubation (Table 1, FIG. 2).

Compound | % esters hydrolyzed per 3 hours [1] [%] | Hydrolysis by crude enzymic preparation (in words) [2] | % Geranyl acetate hydrolyzed ([2]; incubation time 2 hour) [%] | % Geranyl acetate hydrolyzed ([2]; incubation time 4 hour) [%] | % Geranyl acetate hydrolyzed ([2]; incubation time 6 hour) [%] | % Geranyl acetate hydrolyzed ([2]; incubation time 8 hour) [%] | % Geranyl acetate hydrolyzed ([2]; incubation time 10 hour) [%] | % Geranyl acetate hydrolyzed ([2]; incubation time 12 hour) [%]
CC(=O)OCCC(C)CCC=C(C)C (centres unmarked) [Citronellyl acetate, citronellyl acetate] | 6.78 | could also hydrolyze | – | – | – | – | – | –
CC(C)=CCC/C(C)=C/COC=O [Geranyl formate, geranyl formate] | 4.86 | could also hydrolyze | – | – | – | – | – | –
CC(=O)OC/C=C(\C)CCC=C(C)C [geranyl acetate] | 19.23 | – | 8.2 | 22.3 | 32 | 35.7 | 47.1 | 53.2
